These results are taken from patent US11155586B2, “Cystine knot scaffold platform” (Genentech, Inc., priority 2015, dated 2021).

In series [1] the target is T1, hVEGF-A (8-109) (Homo sapiens, UniProt P15692).
T1 sequence (P15692 34-135 isoform P15692-4): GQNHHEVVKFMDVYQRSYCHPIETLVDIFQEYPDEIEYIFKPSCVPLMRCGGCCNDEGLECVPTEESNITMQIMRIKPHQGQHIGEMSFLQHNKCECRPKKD
Nature of the series: SPR binding assay (BIACORE 3000, 37° C.). To be noted: SPR affinity (Table 37) and cellular IC50 (Table 38), vs variant without F8Y. In short, it runs like this:
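VEGF-A, biotinylated and captured on streptavidin sensor or amine-coupled to CM5 at pH 5.0, to about 400 RU. Peptide concentration series in HBS-EP with 0.1% DMSO injected at […]; kinetics and affinities from 1:1 binding model fits.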

Series [2] can be described thus: Solubility. It counts as physicochemical. The note with it: vs variant without F8Y; read-out: improvement of solubility by F8Y substitution. An excerpt: In variants derived from VEGF_CKP9.54 (such as the variants in Table 35) the amino acid at position 8 is Phe. Therefore, we sought to mutate Phe8 to Tyr I in some of the variants in Table 35, with the goal of improving affinity and/or solubility of the resulting F8Y variant. […] See Table 37, in which the binding affinities of certain variants (as determined by surface plasmon resonance) are compared, and Table 38 in which the potencies of certain variants (as determined by cellular IC50) are compared. […] VEGF_CKP9.54.90.67.F8Y was selected for further follow-up studies.

In series [3] the target is Wnt1 signaling (Homo sapiens). Nature of the series: Wnt luciferase reporter assay in HEK293 cells, Wnt1. It is filed as cell-based. On the procedure: HEK293 cells stably transfected with a firefly luciferase Wnt reporter (Gong et al. (2010) PLoS ONE 59: e12682). and pRL-SV40 Renilla luciferase (Promega) were grown to 90% confluence in DMEM:F12 (50:50) supplemented with 10% FBS, 2 mM GLUTAMAX™ and 40 μg/ml hygromycin. Cells were incubated in a 5% CO2 humidified incubator at 37° C. for 24 h. Following the incubation, the cells were trypsinized (0.05% Gibco 15400-54 in PBS) then diluted to 4×10^5 cells/ml in DMEM:F12 (50:50) supplemented with 10% FBS, 2 mM GLUTAMAX™. 20,000 cells were loaded into individual wells of white microtest 96-well optilux plates (catalog no. 353947) and incubated for ˜24 h. Each well was transfected using FUGENE® HD with Wnt1-pCDNA3.2 (5 ng/well) or Wnt3a-pCDNA3.2 (25 ng/well) then grown for 24 h. […]
Luciferase response in all assays was then measured with Promega's DUAL-GLO® kit according to the manufacturer's instructions, except using half the volume of each reagent. Firefly luminescence and Renilla luminescence were measured on a Perkin Elmer ENVISION™ Multilabel Reader. The ratios of firefly luminescence: Renilla luminescence were calculated and normalized to the ratio in control cells expressing or treated with the indicated Wnt protein. […] Statistical significance was determined using the Holm-Sidak method, with alpha=5.000%.
For orientation: A reporter such as luciferase makes a cellular process visible.

Values after ≈ are worked out from the molar mass of the structure shown. No end group written: not given here.

Sequence of Wnt1 signaling (Homo sapiens) (O75581 20-1613): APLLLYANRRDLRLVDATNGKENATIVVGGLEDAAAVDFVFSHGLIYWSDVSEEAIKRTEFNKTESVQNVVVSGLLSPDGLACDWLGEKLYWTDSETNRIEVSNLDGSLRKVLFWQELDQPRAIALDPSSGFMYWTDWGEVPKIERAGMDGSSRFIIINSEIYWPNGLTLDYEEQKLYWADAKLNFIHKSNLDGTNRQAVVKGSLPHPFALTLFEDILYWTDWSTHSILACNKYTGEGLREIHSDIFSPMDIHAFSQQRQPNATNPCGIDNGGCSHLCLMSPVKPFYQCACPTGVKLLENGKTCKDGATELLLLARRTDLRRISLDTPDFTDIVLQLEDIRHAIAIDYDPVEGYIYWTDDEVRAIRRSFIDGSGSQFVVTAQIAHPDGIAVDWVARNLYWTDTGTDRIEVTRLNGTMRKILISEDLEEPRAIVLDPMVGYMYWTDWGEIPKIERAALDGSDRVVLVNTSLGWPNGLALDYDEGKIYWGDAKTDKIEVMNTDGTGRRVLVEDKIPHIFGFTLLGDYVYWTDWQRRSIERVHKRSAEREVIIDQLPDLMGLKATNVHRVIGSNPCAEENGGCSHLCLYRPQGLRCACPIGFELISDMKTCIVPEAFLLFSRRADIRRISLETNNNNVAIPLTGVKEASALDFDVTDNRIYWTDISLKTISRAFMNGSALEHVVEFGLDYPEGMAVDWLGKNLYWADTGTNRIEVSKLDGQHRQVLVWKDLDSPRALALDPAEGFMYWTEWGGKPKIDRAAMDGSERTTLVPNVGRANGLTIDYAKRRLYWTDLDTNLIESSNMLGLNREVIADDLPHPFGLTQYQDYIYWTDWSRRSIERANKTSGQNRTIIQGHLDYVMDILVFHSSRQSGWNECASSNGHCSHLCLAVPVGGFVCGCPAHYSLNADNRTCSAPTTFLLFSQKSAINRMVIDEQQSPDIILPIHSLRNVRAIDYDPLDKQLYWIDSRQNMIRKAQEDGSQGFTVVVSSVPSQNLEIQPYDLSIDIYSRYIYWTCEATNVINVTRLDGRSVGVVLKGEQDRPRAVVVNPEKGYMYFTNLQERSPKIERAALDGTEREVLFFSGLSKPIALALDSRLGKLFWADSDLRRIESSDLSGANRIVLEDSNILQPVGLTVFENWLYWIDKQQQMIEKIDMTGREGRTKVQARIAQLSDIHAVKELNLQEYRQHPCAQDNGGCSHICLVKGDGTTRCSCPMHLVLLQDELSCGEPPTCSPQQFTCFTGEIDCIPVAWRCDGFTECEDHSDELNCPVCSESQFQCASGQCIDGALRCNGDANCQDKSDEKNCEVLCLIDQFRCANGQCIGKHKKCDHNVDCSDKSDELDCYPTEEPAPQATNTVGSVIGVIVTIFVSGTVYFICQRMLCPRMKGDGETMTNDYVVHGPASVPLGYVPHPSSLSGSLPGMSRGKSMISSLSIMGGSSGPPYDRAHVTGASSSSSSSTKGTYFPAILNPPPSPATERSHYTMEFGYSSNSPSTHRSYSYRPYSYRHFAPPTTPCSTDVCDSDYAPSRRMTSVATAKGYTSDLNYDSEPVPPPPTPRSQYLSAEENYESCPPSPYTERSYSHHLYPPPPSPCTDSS

By solubility is commonly meant the dissolved amount per volume that the medium holds. As for `CC[C@H](C)[C@H](NC(=O)[C@@H]1CSSC[C@H](NC(=O)CN)C(=O)N[C@@H](CC(N)=O)C(=O)N[C@@H]([C@@H](C)CC)C(=O)N[C@@H](CCSC)C(=O)N[C@@H](CC(C)C)C(=O)N2CCC[C@H]2C(=O)N[C@@H](Cc2ccc(O)cc2)C(=O)N[C@@H](Cc2c[nH]c3ccccc23)C(=O)NCC(=O)N[C@H]2CSSC[C@H](NC(=O)[C@H](CCC(=O)O)NC(=O)[C@H](Cc3ccccc3)NC(=O)[C@H](CC(=O)O)NC(=O)[C@H](CCCNC(=N)N)NC(=O)CNC2=O)C(=O)N[C@@H](CCSC)C(=O)N[C@@H](CCC(=O)O)C(=O)N[C@@H](CCC(N)=O)C(=O)N1)C(=O)N[C@H]1CSSC[C@@H](C(=O)NCC(=O)O)NC(=O)[C@H](CO)NC(=O)[C@H](CCC(N)=O)NC(=O)[C@H](Cc2ccc(O)cc2)NC(=O)[C@H](Cc2ccc(O)cc2)NC(=O)[C@H](CCC(N)=O)NC1=O` [VEGF_CKP9.54.90.67.F8Y], in series [1], the “effect of F8Y mutation on affinity/potency” value is listed as “modest improvement”. For the same molecule, the solubility in series [2] was approximately 2 mg/mL (≈ 572 µM).

For “R19: LRP6 E1E2-binding EETI-II variant generated in soluble folded form (GCSNRVKVRACKQDSDCLAGCVCGPNGFCG; ends and bridges not checked; also: three disulfides, pairing not given here)”, the “selectivity for Wnt1 over Wnt3a signaling” value in series [3] was 11 fold.
